Reference: patent US20230091047A1 (priority 2019, published 2023)
Read-outs that look alike come from different tables or passages of the source.

Columns and labels:
[1] = test system: HBV (HepG2.117 cell line, inducibly HBV producing); test: Anti-HBV activity: intracellular HBV DNA by real-time PCR in HepG2.117 cells after 3 days of treatment; type: cell-based, hepatitis B virus
Procedure, shortened: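 HepG2.117 cells (Tet-off, inducible HBV production) were induced to replicate HBV by doxycycline absence, then treated with serially diluted compound for 3 days. Activity was quantified as intracellular HBV DNA by real-time PCR using an HBV-specific primer set and probe.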

in vitro = type: cell-based; settings: human, HepG2 or HepG2.117 cells, ATPlite, mean value
Procedure, shortened: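 Luminescent ATP quantitation served as the viability endpoint following a 3- or 4-day incubation with test compounds.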

[2] = Hepatitis B virus, HepG2.117, 72 h, HepG2.117 cells, 3 days of treatment, intracellular HBV DNA by real-time PCR; mean value; read-out: EC50 (μM, mean value)
[3] = 3-days incubation (unmarked values)
[4] = Hepatitis B virus, HepG2.117, 72 h, HepG2.117 cells, intracellular HBV DNA by real-time PCR, 3 days of treatment, mean value; read-out: EC50 (μM, mean value)
[5] = 3-days incubation (not marked with *)

| Compound | EC50 [1, 2] | CC50 at 3 days (in vitro; [3]) | EC50 [1, 4] | CC50 at 3 days (in vitro; [5]) |
| --- | --- | --- | --- | --- |
| Cc1cc(-c2ccc(-n3c(NC(C)C)nc4c(c3=O)C[C@@H](C)N(C(=O)c3ccc(Cl)c(Cl)c3)C4)cc2)on1 [Compound C246, (6R)-7-(3,4-dichlorobenzoyl)-6-methyl-3-[4-(3-methyl-1,2-oxazol-5-yl)phenyl]-2-[(propan-2-yl)amino]-5,6,7,8-tetrahydropyrido[3,4-d]pyrimidin-4(3H)-one] | 0.19 µM | > 50 µM | – | – |
| COc1ccc(CNc2nc3c(c(=O)[nH]2)CC(c2ccc(F)cc2)N(C(=O)c2ccc(Cl)c(Cl)c2)C3)cc1 (stereo not drawn) [Compound C94, 7-(3,4-dichlorobenzoyl)-6-(4-fluorophenyl)-2-{[(4-methoxyphenyl)methyl]amino}-5,6,7,8-tetrahydropyrido[3,4-d]pyrimidin-4(3H)-one] | 0.77 µM | > 50 µM | – | – |
| CNC(=O)c1ccc(-n2c(NC(C)C)nc3c(c2=O)C[C@@H](C)N(C(=O)c2cc(F)c(Cl)cc2F)C3)cc1 [Compound C498] | – | – | 2.92 µM | > 50 µM |
| COc1ccc(CNc2nc3c(c(=O)[nH]2)CCN(C(=O)c2ccc(I)cc2)C3)cc1 [Compound C117, 7-(4-iodobenzoyl)-2-{[(4-methoxyphenyl)methyl]amino}-5,6,7,8-tetrahydropyrido[3,4-d]pyrimidin-4(3H)-one] | 9.61 µM | 43.5 µM | – | – |
| CNC(=O)c1ccc(-n2c(N[C@@H](C)c3ccc4c(ccn4C)c3)nc3c(c2=O)C[C@@H](C)N(C(=O)c2ccc(Cl)c(Cl)c2)C3)cc1 (single isomer, unassigned) [Compound C450b] | – | – | 0.18 µM | > 50 µM |
| COc1ccc(CN(CCO)c2nc3c(c(=O)[nH]2)CCN(C(=O)c2ccc(Cl)c(Cl)c2)C3)cc1 [Compound C91, 7-(3,4-dichlorobenzoyl)-2-{(2-hydroxyethyl)[(4-methoxyphenyl)methyl]amino}-5,6,7,8-tetrahydropyrido[3,4-d]pyrimidin-4(3H)-one] | 8.92 µM | 22.2 µM | – | – |
| CNC(=O)c1ccc(-n2c(N[C@@H](C)c3cccc(OC)c3)nc3c(c2=O)C[C@@H](C)N(C(=O)c2ccc(Cl)c(Cl)c2)C3)cc1 (single isomer, unassigned) [Compound C394b] | – | – | 0.15 µM | 29 µM |
| CNC(=O)c1ccc(-n2c(N[C@@H](C)c3ccnn3C)nc3c(c2=O)C[C@@H](C)N(C(=O)c2ccc(Cl)c(Cl)c2)C3)cc1 (single isomer, unassigned) [Compound C372b] | 2.54 µM | > 50 µM | – | – |
| CNC(=O)c1ccc(-n2c(N[C@@H]3CCC34CCC4)nc3c(c2=O)C[C@@H](C)N(C(=O)c2ccc(Cl)c(Cl)c2)C3)cc1 (single isomer, unassigned) [Compound C346a] | – | – | 0.94 µM | 27.6 µM |
| CNC(=O)c1ccc(-n2c(NCc3ccc4cc[nH]c4c3)nc3c(c2=O)C[C@@H](C)N(C(=O)c2ccc(Cl)c(Cl)c2)C3)cc1 [Compound C325, 4-[(6R)-7-(3,4-dichlorobenzoyl)-2-{[(1H-indol-6-yl)methyl]amino}-6-methyl-4-oxo-5,6,7,8-tetrahydropyrido[3,4-d]pyrimidin-3(4H)-yl]-N-methylbenzamide] | 0.42 µM | 22.8 µM | – | – |
| CNC(=O)c1ccc(-n2c(NC(C)C)nc3c(c2=O)C[C@@H](C)N(C(=O)c2ccc(Br)c(OC(C)C)c2)C3)cc1 [Compound C575] | – | – | 0.55 µM | > 50 µM |
| CNc1noc2cc(-n3c(N[C@@H](C)c4ccc(C(F)(F)F)cc4)nc4c(c3=O)C[C@@H](C)N(C(=O)c3ccc(Cl)c(Cl)c3)C4)ccc12 [Compound C612, (R)-7-(3,4-dichlorobenzoyl)-6-methyl-3-(3-(methylamino)-benzo[d]isoxazol-6-yl)-2-(((S)-1-(4-(trifluoromethyl)phenyl)ethyl)amino)-5,6,7,8-tetrahydropyrido[3,4-d]pyrimidin-4(3H)-one] | – | – | 0.14 µM | > 50 µM |
